Results taken from patent US20090062382A1, “EXTERNAL PREPARATION FOR IMPROVING COITAL FUNCTION” (CARDIOVASCULAR INSTITUTE, LTD., priority 2003, published 2009).

Test system: penis
Assay: Clinical study: penile temperature change by thermography
Format: in vivo, human
Conditions: intra-urethral infusion; FIG. 7
Protocol: Five (5) healthcare workers of 60 to 69 years old having no early-morning erection were subjected to the study. After obtaining verbal informed consent, the study was carried out from May 2001 through February 2003 as described below.
After keeping the subjects at rest with naked from the waist down for 5 minutes at room temperature of 25° C. and humidity of 60%, temperature of a penis, oxygen saturation in a penile sponge body, and hardness of a penis were measured. The measurement was carried out before administration of the preparation as reference and at 1, 3, 6, 12, 24 and 36 hours after administration, and the value of change (changed value±average error) were recorded. When there was no change at 3 hours after administration, the preparation was considered not effective and measurement thereafter was quitted.
Embrocation: 0.5 ml of each preparation was applied all over to a glans and a penis.
The relevant infusion apparatus was inserted into a urethra, and 0.5 ml of the preparation was infused by rotating a cylinder.
Temperature rise reflects increased blood-flow. So, penile temperature was measured by a thermography (Thermo Tracer TH5108, NEC San-ei Instruments, Ltd.). As this instrument can display a measurement site and temperature of the site numerically on a screen, measurements before and after administrations were possible to be performed at the same position. […]

## CC#CCC(C)[C@H](O)/C=C/[C@@H]1[C@H]2c3cccc(CCCC(=O)[O-])c3O[C@H]2C[C@H]1O.[Na+] (relative stereo) [beraprost sodium, (+)-(1R*,2R*,3aS*,8bS*)-2,3,3a,8b-tetrahydro-2-hydroxy-1-[(e)-(3S*)-3-hydroxy-4-methyl-1-octene-6-ynyl]-1H-cyclopenta [b]benzofuran-5-butanoic acid sodium salt]
  level and duration of temperature increase: low
